Assays:
[1] = system: EL4-HHD cells loaded with the peptides; assay: Cytotoxic T lymphocytes assay after immunization of HHD transgenic mice with peptide-loaded cells; type: in vivo; conditions: compared to negative control peptide ALLCAPSLL; effector-to-target ratio of 50:1 shown
Text: Cells were loaded separately with individual peptides, washed and injected in four groups: 1-p1028 (SEQ ID NO:13) alone, 2- p1258 (SEQ ID NO:24) alone, 3-pool of peptides: p913 (SEQ ID NO:5), p958 (SEQ ID NO:9), p989 of CD59 (SEQ ID NO:11) and p989 of FLI (SEQ ID NO:12), 4- peptides p1031 (SEQ ID NO:14), p1121 (SEQ ID NO:22) and p1068 (SEQ ID NO:16). Unloaded EL4-HHD or targets cells not loaded with the peptides were used as negative controls. An effector-to-target ratio of 50:1 is shown,
Transgenic mice expressing a single chain HLA-A2.1/Db-β2 m which are double knockout for H-2 Db and for β2 m (HHD mice) were immunized four times intra-peritoneally at 7-day interval with 2×10^6 irradiated (5,000 rad) RMA-S-HHD-B7.1 cells loaded for two hours at 26° C. followed by two hours at 37° C. with 100 μM of the synthetic peptides. Ten days after the last immunization the spleens were removed from the vaccinated mice. Splenocytes were re-stimulated with 100 μM of synthetic peptides for five days. Viable lymphocytes were separated by lympholyte-M (Cadarlane, Hornby, Canada) and resuspended in RPMI-HEPES. Cytotoxic activity was measured as in [26] by admixing the lymphocytes at different ratios with 5×10^3 EL4-HHD cells grown in medium containing ^35S methionine and then loaded wit the synthetic peptides.
To further evaluate the affinity of the peptides to the HLA-A2 and to obtain some insight into their immunogenic potential, selected peptides were tested for their ability to induce an immune response in HLA-A2 transgenic mice. It was assumed that only peptides that could be effectively presented and remain tightly bound to the cells would be capable of inducing an immune response in these mice. The same synthetic peptides that were used for the FACS analysis were used for immunization of the HHD transgenic mice, which express the human HLA-A2.1/Db-β2 m single chain. To immunize the mice, the HHD culture cells were loaded with the different peptides and then injected to the HHD mice. The immune response in the mice was followed by the appearance of CTLs specific for these peptides. Some of the peptides were indeed capable of inducing an immune response, which both authenticate them as MHC bound peptides and gives an indication about their immunogenic potential.

[2] = system: T1, HLA-A2.1; assay: Stabilization of cell surface HLA-A2.1 by peptide binding (reconstitution into empty MHC on RMA-S-HHD cells, FACS); type: cell-based, human; conditions: synthetic peptide 100 μM, FACS with W6/32 mAb
T1 construct: expressed in transfected cells; host or cells: RMA-S (murine TAP-2 deficient lymphoma, C57BL/6 origin)
T1 sequence (P61769 with tags, fused parts or gaps): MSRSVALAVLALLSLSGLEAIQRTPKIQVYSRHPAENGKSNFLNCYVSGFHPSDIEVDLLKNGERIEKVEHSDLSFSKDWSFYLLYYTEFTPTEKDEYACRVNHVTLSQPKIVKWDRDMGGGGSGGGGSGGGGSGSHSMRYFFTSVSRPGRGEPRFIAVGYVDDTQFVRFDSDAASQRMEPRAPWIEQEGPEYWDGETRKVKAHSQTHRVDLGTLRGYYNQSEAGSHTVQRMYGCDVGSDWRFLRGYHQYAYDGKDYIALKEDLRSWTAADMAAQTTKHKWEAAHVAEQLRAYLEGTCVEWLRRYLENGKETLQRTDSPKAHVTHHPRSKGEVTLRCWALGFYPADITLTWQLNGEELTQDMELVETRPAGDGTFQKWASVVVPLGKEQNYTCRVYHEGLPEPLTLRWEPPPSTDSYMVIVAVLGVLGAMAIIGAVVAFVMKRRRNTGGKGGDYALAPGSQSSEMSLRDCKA
Method: Synthetic peptides were added to 10^6 RMA-S-HHD cells to a concentration of 100 μM followed by incubation for two hours at 26° C. and two hours at 37° C. […] The HLA-A2.1 peptide derived from gp100 served as a positive control and unloaded RMA-S-HHD cells as a negative control.
RMA-S-HHD cells were washed three times with PBS followed by incubation overnight in FCS-free IMDM medium at 26° C. Synthetic peptides were added to 10^6 cells at a concentration of 100 μM. The cells were incubated for two hours at 26° C. followed by two hours at 37° C. […] (Sigma).
Another approach to ascertain that the identified peptides were indeed MHC bound peptide antigens, their capacity to bind tightly and stabilize cell surface HLA-A2.1 was tested by reconstitution into empty MHC on the surface of RMA-S-HHD cells.

Sequence | lysis of peptide-loaded EL4-HHD cells by CTLs from immunized HHD mice [1] | binding affinity to HLA-A2 / stabilization of empty MHC on the surface of RMA-S-HHD cells [2]
TLWVDPYEV | significant lysis | 
FLFDGSPTYVL | significant lysis | 
GLIEKNIEL | significant lysis | 
GVYDGEEHSV |  | normal
ALSDHHIYL | significant lysis | 

From patent US6867283B2, “Peptides capable of binding to MHC molecules, cells presenting such peptides, and pharmaceutical compositions comprising such peptides and/or cells” (Technion Research & Development Foundation Ltd., priority 2001, dated 2005)
